Results reported in patent publication US20070049564A1 (Wyeth, priority 2005, published 2007).
In brackets after ≈: the same amount, converted by molar mass. Read-outs that look alike come from different tables or passages of the source.

Legend:
S. pneumoniae+ GC 4465 = experiment: MIC, broth microdilution; conditions: Streptococcus pneumoniae
E. faecium GC 2243 = experiment: MIC, broth microdilution; conditions: Enterococcus faecium
E. coli GC 2232 = experiment: MIC, broth microdilution; conditions: Escherichia coli
E. coli GC 2271 = experiment: MIC, broth microdilution; conditions: Escherichia coli
E. faecalis GC 2265 = experiment: MIC, broth microdilution; conditions: Enterococcus faecalis
S. pyogenes GC 4563 = experiment: MIC, broth microdilution; conditions: Streptococcus pyogenes
Protocol: (§1) Antimicrobial susceptibility testing. The in vitro activities of the antibiotics are determined by the broth microdilution method as recommended by the National Committee for Clinical Laboratory Standards (NCCLS) (1). Mueller-Hinton II broth (MHBII)(BBL Cockeysville, Md.) is the medium employed in the testing procedures. Microtiter plates containing serial dilutions of each antimicrobial agent are inoculated with each organism to yield the appropriate density (10^5 CFU/ml) in a 100 μl final volume. The plates are incubated for 18-22 hours at 35° C. in ambient air. […] Standard Pharmacological Test Procedures
(§2) Presented in Tables I-XIII are representative compounds of Formula I which were evaluated against a panel of 40 selected gram-positive and gram-negative bacteria strains by pre-incubation in water, mouse serum or human serum. Representative compounds were first incubated in mouse serum for an hour prior to the in vitro testing against a panel of selected gram-positive and gram-negative bacteria strains. All compounds were also pre-incubated in water for an hour prior to testing as control. Representative compounds of Formula I were incubated in human serum prior to MIC determination.

S. aureus GC 4536 = experiment: MIC, broth microdilution; conditions: Staphylococcus aureus
E. coli GC 1073 = experiment: MIC, broth microdilution; conditions: Escherichia coli
E. coli GC 3226 = experiment: MIC, broth microdilution; conditions: Escherichia coli
E. coli GC 2270 = experiment: MIC, broth microdilution; conditions: Escherichia coli
S. agalactiae GC 4564 = experiment: MIC, broth microdilution; conditions: Streptococcus agalactiae
S. aureus GC 6469 = experiment: MIC, broth microdilution; conditions: Staphylococcus aureus
c. albicans GC 3066 = experiment: MIC, broth microdilution
E. coli GC 4559 = experiment: MIC, broth microdilution; conditions: Escherichia coli
E. faecalis GC 2242 = experiment: MIC, broth microdilution; conditions: Enterococcus faecalis
S. aureus GC 6335 = experiment: MIC, broth microdilution; conditions: Staphylococcus aureus
S. aureus GC 2216 = experiment: MIC, broth microdilution; conditions: Staphylococcus aureus
Protocol: as §1, §2

Staph. aureus Smith = experiment: In vivo activity (oral, iv; ED50) against Staph. aureus Smith in mice
Protocol: Representative examples of compounds of Formula I were tested for the oral efficacy using S. aureus Smith in mice.

E. coli = experiment: Range of MIC for E. coli strains; conditions: Escherichia coli
P. aeruginosa GC 2214 = experiment: MIC, broth microdilution; conditions: Pseudomonas aeruginosa

SMILES: CN(C)c1cc(NC(=O)CN(C(=O)OCOC(=O)C2CCCCC2)C(C)(C)C)c(O)c2c1C[C@H]1C[C@H]3[C@H](N(C)C)C(O)=C(C(N)=O)C(=O)[C@@]3(O)C(O)=C1C2=O [Example 50, ({[(2-{[(5aR,6aS,7S,10aS)-9-(aminocarbonyl)-4,7-bis(dimethylamino)-1,8,10a,11-tetrahydroxy-10,12-dioxo-5,5a,6,6a,7,10,10a,12-octahydrotetracen-2-yl]amino}-2-oxoethyl)(tert-butyl)amino]carbonyl}oxy)methyl cyclohexanecarboxylate]
- MIC (S. pneumoniae+ GC 4465; read-out: MINIMAL INHIBITORY CONCENTRATION MIC, Human Serum): 0.5 mg/L (≈ 0.649 µM)
- MIC (S. pneumoniae+ GC 4465; read-out: MINIMAL INHIBITORY CONCENTRATION MIC, Mouse Serum): 0.5 mg/L (≈ 0.649 µM)
- MIC (S. pneumoniae+ GC 4465; read-out: MINIMAL INHIBITORY CONCENTRATION MIC, Water): 0.5 mg/L (≈ 0.649 µM)
- MIC (E. faecium GC 2243; GC2243, read-out: MINIMAL INHIBITORY CONCENTRATION MIC, Human Serum): 0.25 mg/L (≈ 0.325 µM)
- MIC (E. faecium GC 2243; GC2243, read-out: MINIMAL INHIBITORY CONCENTRATION MIC, Mouse Serum): 0.25 mg/L (≈ 0.325 µM)
- MIC (E. faecium GC 2243; GC2243, read-out: MINIMAL INHIBITORY CONCENTRATION MIC, Water): 0.5 mg/L (≈ 0.649 µM)
- MIC (E. coli GC 2232; GC2232, read-out: MINIMAL INHIBITORY CONCENTRATION MIC, Human Serum): 8 mg/L (≈ 10.4 µM)
- MIC (E. coli GC 2232; GC2232, read-out: MINIMAL INHIBITORY CONCENTRATION MIC, Mouse Serum): 1 mg/L (≈ 1.3 µM)
- MIC (E. coli GC 2232; GC2232, read-out: MINIMAL INHIBITORY CONCENTRATION MIC, Water): 32 mg/L (≈ 41.6 µM)
- MIC (E. coli GC 2271; GC2271, read-out: MINIMAL INHIBITORY CONCENTRATION MIC, Human Serum): 4 mg/L (≈ 5.2 µM)
- MIC (E. coli GC 2271; GC2271, read-out: MINIMAL INHIBITORY CONCENTRATION MIC, Mouse Serum): 1 mg/L (≈ 1.3 µM)
- MIC (E. coli GC 2271; GC2271, read-out: MINIMAL INHIBITORY CONCENTRATION MIC, Water): 32 mg/L (≈ 41.6 µM)
- MIC (E. faecalis GC 2265; GC2265, read-out: MINIMAL INHIBITORY CONCENTRATION MIC, Human Serum): 2 mg/L (≈ 2.6 µM)
- MIC (E. faecalis GC 2265; GC2265, read-out: MINIMAL INHIBITORY CONCENTRATION MIC, Mouse Serum): 1 mg/L (≈ 1.3 µM)
- MIC (E. faecalis GC 2265; GC2265, read-out: MINIMAL INHIBITORY CONCENTRATION MIC, Water): 4 mg/L (≈ 5.2 µM)
- MIC (S. pyogenes GC 4563; GC4563, read-out: MINIMAL INHIBITORY CONCENTRATION MIC, Human Serum): 0.12 mg/L (≈ 0.156 µM)
- MIC (S. pyogenes GC 4563; GC4563, read-out: MINIMAL INHIBITORY CONCENTRATION MIC, Mouse Serum): 0.12 mg/L (≈ 0.156 µM)
- MIC (S. pyogenes GC 4563; GC4563, read-out: MINIMAL INHIBITORY CONCENTRATION MIC, Water): 0.25 mg/L (≈ 0.325 µM)
- MIC (S. aureus GC 4536; GC4536, read-out: MINIMAL INHIBITORY CONCENTRATION MIC, Human Serum): 0.25 mg/L (≈ 0.325 µM)
- MIC (S. aureus GC 4536; GC4536, read-out: MINIMAL INHIBITORY CONCENTRATION MIC, Mouse Serum): 0.25 mg/L (≈ 0.325 µM)
- MIC (S. aureus GC 4536; GC4536, read-out: MINIMAL INHIBITORY CONCENTRATION MIC, Water): 0.5 mg/L (≈ 0.649 µM)
- MIC (E. coli GC 1073; GC1073, read-out: MINIMAL INHIBITORY CONCENTRATION MIC, Human Serum): 8 mg/L (≈ 10.4 µM)
- MIC (E. coli GC 1073; GC1073, read-out: MINIMAL INHIBITORY CONCENTRATION MIC, Mouse Serum): 2 mg/L (≈ 2.6 µM)
- MIC (E. coli GC 1073; GC1073, read-out: MINIMAL INHIBITORY CONCENTRATION MIC, Water): 32 mg/L (≈ 41.6 µM)
- MIC (E. coli GC 3226; GC3226, read-out: MINIMAL INHIBITORY CONCENTRATION MIC, Human Serum): 8 mg/L (≈ 10.4 µM)
- MIC (E. coli GC 3226; GC3226, read-out: MINIMAL INHIBITORY CONCENTRATION MIC, Mouse Serum): 1 mg/L (≈ 1.3 µM)
- MIC (E. coli GC 3226; GC3226, read-out: MINIMAL INHIBITORY CONCENTRATION MIC, Water): 32 mg/L (≈ 41.6 µM)
- MIC (E. coli GC 2270; GC2270, read-out: MINIMAL INHIBITORY CONCENTRATION MIC, Human Serum): 8 mg/L (≈ 10.4 µM)
- MIC (E. coli GC 2270; GC2270, read-out: MINIMAL INHIBITORY CONCENTRATION MIC, Mouse Serum): 1 mg/L (≈ 1.3 µM)
- MIC (E. coli GC 2270; GC2270, read-out: MINIMAL INHIBITORY CONCENTRATION MIC, Water): 32 mg/L (≈ 41.6 µM)
- MIC (S. agalactiae GC 4564; GC4564, read-out: MINIMAL INHIBITORY CONCENTRATION MIC, Human Serum): 0.25 mg/L (≈ 0.325 µM)
- MIC (S. agalactiae GC 4564; GC4564, read-out: MINIMAL INHIBITORY CONCENTRATION MIC, Mouse Serum): 0.25 mg/L (≈ 0.325 µM)
- MIC (S. agalactiae GC 4564; GC4564, read-out: MINIMAL INHIBITORY CONCENTRATION MIC, Water): 0.25 mg/L (≈ 0.325 µM)
- MIC (S. aureus GC 6469; GC6469, read-out: MINIMAL INHIBITORY CONCENTRATION MIC, Human Serum): 1 mg/L (≈ 1.3 µM)
- MIC (S. aureus GC 6469; GC6469, read-out: MINIMAL INHIBITORY CONCENTRATION MIC, Mouse Serum): 1 mg/L (≈ 1.3 µM)
- MIC (S. aureus GC 6469; GC6469, read-out: MINIMAL INHIBITORY CONCENTRATION MIC, Water): 2 mg/L (≈ 2.6 µM)
- MIC (c. albicans GC 3066; Candida albicans, GC3066, read-out: MINIMAL INHIBITORY CONCENTRATION MIC): > 64 mg/L
- MINIMAL INHIBITORY CONCENTRATION MIC (c. albicans GC 3066; Human Serum): >64 UG/ML
- MINIMAL INHIBITORY CONCENTRATION MIC (c. albicans GC 3066; Mouse Serum): >64 UG/ML
- MIC (E. coli GC 4559; GC4559, read-out: MINIMAL INHIBITORY CONCENTRATION MIC, Human Serum): 16 mg/L (≈ 20.8 µM)
- MIC (E. coli GC 4559; GC4559, read-out: MINIMAL INHIBITORY CONCENTRATION MIC, Mouse Serum): 2 mg/L (≈ 2.6 µM)
- MIC (E. coli GC 4559; GC4559, read-out: MINIMAL INHIBITORY CONCENTRATION MIC, Water): 64 mg/L (≈ 83.1 µM)
- MIC (E. faecalis GC 2242; GC2242, read-out: MINIMAL INHIBITORY CONCENTRATION MIC, Human Serum): 1 mg/L (≈ 1.3 µM)
- MIC (E. faecalis GC 2242; GC2242, read-out: MINIMAL INHIBITORY CONCENTRATION MIC, Mouse Serum): 1 mg/L (≈ 1.3 µM)
- MIC (E. faecalis GC 2242; GC2242, read-out: MINIMAL INHIBITORY CONCENTRATION MIC, Water): 2 mg/L (≈ 2.6 µM)
- MIC (S. aureus GC 6335; GC6335, read-out: MINIMAL INHIBITORY CONCENTRATION MIC, Human Serum): 1 mg/L (≈ 1.3 µM)
- MIC (S. aureus GC 6335; GC6335, read-out: MINIMAL INHIBITORY CONCENTRATION MIC, Mouse Serum): 1 mg/L (≈ 1.3 µM)
- MIC (S. aureus GC 6335; GC6335, read-out: MINIMAL INHIBITORY CONCENTRATION MIC, Water): 1 mg/L (≈ 1.3 µM)
- MIC (S. aureus GC 2216; GC2216, read-out: MINIMAL INHIBITORY CONCENTRATION MIC, Human Serum): 0.5 mg/L (≈ 0.649 µM)
- MIC (S. aureus GC 2216; GC2216, read-out: MINIMAL INHIBITORY CONCENTRATION MIC, Mouse Serum): 1 mg/L (≈ 1.3 µM)
- MIC (S. aureus GC 2216; GC2216, read-out: MINIMAL INHIBITORY CONCENTRATION MIC, Water): 2 mg/L (≈ 2.6 µM)
- ED50 (Staph. aureus Smith; Staphylococcus aureus, in Mus musculus, iv, read-out: ED50 SIV (Staph aureus Smith)): 1.65 mg/kg
- ED50 (Staph. aureus Smith; Staphylococcus aureus, in Mus musculus, po, read-out: ED50 SOD (Staph aureus Smith)): 16.9 mg/kg
- ED50 (Staph. aureus Smith; Staphylococcus aureus, in Mus musculus, po, read-out: ED50 Staph Smith SOD): 16.9 mg/kg
- ED50 (Staph. aureus Smith; iv, read-out: ED50 Staph Smith SIV): 1.65 mg/kg
- MIC (E. coli; 20 h, read-out: Range of MIC, E. coli (Mouse Serum)): 1 to 2 mg/L (≈ 1.3 to 2.6 µM)
- MIC (E. coli; read-out: Minimum inhibitory concentration (MIC), E. coli (Human Serum)): 4 to 16 mg/L (≈ 5.2 to 20.8 µM)
- MIC (E. coli; read-out: Minimum inhibitory concentration (MIC), E. coli (water)): 32 to 64 mg/L (≈ 41.6 to 83.1 µM)
- MIC (E. coli; read-out: Range of MIC, E. coli (Water)): 32 to 64 mg/L (≈ 41.6 to 83.1 µM)
- MIC (P. aeruginosa GC 2214; GC2214, read-out: MINIMAL INHIBITORY CONCENTRATION MIC, Human Serum): > 64 mg/L
- MIC (P. aeruginosa GC 2214; GC2214, read-out: MINIMAL INHIBITORY CONCENTRATION MIC, Mouse Serum): 32 mg/L (≈ 41.6 µM)
- MIC (P. aeruginosa GC 2214; GC2214, read-out: MINIMAL INHIBITORY CONCENTRATION MIC, Water): > 64 mg/L
